Measured values published in patent US20070149406A1, “Plant growth regulation” (Bayer CropScience GmbH, priority 2003, published 2007).

Assays:
[1] = tested on: maize (Zea mays, variety “LORENZO”); assay: Root growth assay, maize; type: in vivo; details: for Root Growth: wet root weight 16 days post treatment, Root Growth of 100 set as the standard
Description: (§1) Plant roots are a highly proliferative tissue that allows an easy accessible, cheap and short term screening method for plant growth regulators. The results obtained can easily be transferred to the overall effects on a plant of plant growth regulators identified by such a system. By using this root assay one is enabled to determine the effect of a seed treatment to root growth and/or germination and/or changes in habitat of germinated plants in order to identify the possible use as a yield enhancer. Two seeds of wheat (Triticum aestivum, variety “TRISO”) or 1 seed of maize (Zea mays, variety “LORENZO”) per hole in a plastic tray which contains an architecture of 8×13 holes were placed on compost soil covered with sand. These seeds were treated with 100 μl/ hole, which creates an application volume of approx. 1200 I/ha, of a compound solution at active ingredient rates equivalent to 100, 10 and 1 g a.i./ha of each compound using an robotic application system (Lizzy Spray Robotics). Six replicates in a row of each compound and concentration were done. The outer rim of the above defined plastic tray was untreated to avoid false negative effects and the middle row (No. 7) was used as untreated control. The treated seeds were allowed to dry for approx. 4 hours and subsequently covered with sand and watered. The trays were stored in climate chambers with 14 hours lighting at a temperature of 24° C. (±2) at daytime and 16° C. (±2) at night and relative humidity (rH) of 60% and daily watered. Assessments were done 16 (±2) days post treatment by counting the germinated plants and assessing the phytotoxicity symptoms and percentage. In addition, the roots were washed out and the shoots were cut directly above the seed and the wet roots were placed on dry paper towels for approximately 30 minutes and weighted afterwards. This procedure provides a similar grade of moisture to the roots so that a comparison of the weights is possible. […] The effects observed concerning Root Growth given in column 2 (Root Growth of “100” is set as the standard) are directed to concentrations that are equivalent to 100, 10, 1 g a.i./ha, each.

[2] = tested on: wheat (Triticum aestivum, variety “TRISO”); assay: Root growth assay, wheat; type: in vivo; details: for Root Growth: wet root weight 16 days post treatment, Root Growth of 100 set as the standard
Description: as §1

[3] = tested on: maize hybrid Magister and Zamora; assay: Field trial, seed-treated maize, grain yield; type: in vivo; details: seed treatment 1 g/100 kg seeds (0.0003 kg/ha)
Description: Maize seeds of maize hybrid Magister and Zamora were seed treated with compound 1.136 at 1 g/100 kg seeds (0.0003 kg/ha). Field trials were set up in a split plot design representing the plants treated with compounds of formula (I) as well as the non-treated control plants.

Row | Structure (SMILES) | effect as plant growth regulator in maize (in words) [1] | Root Growth ([1]; 1 g a.i./ha) | Root Growth ([1]; 10 g a.i./ha) | Root Growth ([1]; 100 g a.i./ha) | effect as plant growth regulator in wheat (in words) [2] | Root Growth ([2]; 1 g a.i./ha) | Root Growth ([2]; 10 g a.i./ha) | Root Growth ([2]; 100 g a.i./ha) | increase in grain yield compared to non-treated control plants ([3]; maize hybrid Magister) | increase in grain yield compared to non-treated control plants ([3]; maize hybrid Zamora) | melting point
1 | NC(=O)c1nn(-c2c(Cl)cc(C(F)(F)F)cc2Cl)c(N)c1[S+]([O-])C(F)(F)F (stereo not shown) [Compound 1.136] | significant effects of approximately the same size | 107 | 131 | 74 | significant effects of approximately the same size | 124 | 75 | 58 | up to 119% | up to 131% | –
2 | Nc1c(SC(F)(F)F)c(C(=O)O)nn1-c1c(Cl)cc(C(F)(F)F)cc1Cl [Compound 2.10, 5-Amino-1-(2,6-dichloro-4-trifluoromethylphenyl)-4-trifluoromethylthio-1H-pyrazole-3-carboxylic acid] | – | – | – | – | – | 158 | 118 | 134 | – | – | –
3 | CNc1c([S+]([O-])C(F)(F)F)c(C(=O)N(C)C)nn1-c1c(Cl)cc(C(F)(F)F)cc1Cl (stereo not shown) [Compound 1.228] | – | 72 | 111 | 186 | – | – | – | – | – | – | –
4 | CCOc1c(SC(F)(F)F)c(C(N)=O)nn1-c1c(Cl)cc(C(F)(F)F)cc1Cl [Compound 3.3, 1-(2,6-Dichloro-4-trifluoromethylphenyl)-5-ethoxy-4-trifluoromethylthio-1H-pyrazole-3-carboxylic acid amide] | – | – | – | – | – | – | – | – | – | – | 161 °C
5 | Nc1c([S+]([O-])C(F)(F)F)c(C(=O)NCC2CCCO2)nn1-c1c(Cl)cc(C(F)(F)F)cc1Cl (stereo not shown) [Compound 1.144] | – | – | – | – | – | 170 | 115 | 110 | – | – | –
6 | CCCCCNC(=O)c1nn(-c2c(Cl)cc(C(F)(F)F)cc2Cl)c(N)c1[S+]([O-])C(F)(F)F (stereo not shown) [Compound 1.141] | remarkable effect | 111 | 102 | 95 | superior effect | 257 | 160 | 256 | – | – | –
